What was measured:
[1] = tested on: Human immunodeficiency virus 1; assay: Antiviral activity against HIV1 3B in human MT4 cells assessed as protection of cell against virus-induced cytopathogenicity; format: functional, organism-based; settings: Human immunodeficiency virus 1, 3B
[2] = Selectivity index, ratio of CC50 for human MT4 cells to EC50 for HIV1 3B; format: toxicity, cell-based; settings: for selectivity ratio: MT4 cells, read-out: Ratio CC50/EC50; for Activity: mt4
[3] = Cytotoxicity against human MT4 cells; format: cell-based

Cc1ccc(-n2c(C)nnc2SCC(=O)Nc2ccccc2)cc1
EC50 [1]: 2.05 µM

NS(=O)(=O)c1ccc(NC(=O)CSc2nnc(Br)n2-c2ccc(C3CC3)c3ccccc23)c(Cl)c1
EC50 [1]: 0.14 µM

O=C(CSc1snnc1-c1ccccc1)Nc1ccccc1Cl
selectivity ratio [2]: > 13 | CC50 [3]: > 345 µM | EC50 [1]: 26.1 µM

O=C(CSc1snnc1-c1ccccc1)Nc1ccccc1F
Activity [2]: Not Active | CC50 [3]: > 362 µM | EC50 [1]: 362 µM

O=C(CSc1snnc1-c1ccccc1)Nc1ccccc1Br
selectivity ratio [2]: > 14 | CC50 [3]: > 308 µM | EC50 [1]: 22.4 µM

O=C(CSc1snnc1-c1ccc(Cl)cc1Cl)Nc1ccccc1F
selectivity ratio [2]: 145 | CC50 [3]: 19.5 µM | EC50 [1]: 0.135 µM

O=C(CSc1snnc1-c1ccc(Cl)cc1Cl)Nc1ccccc1Br
selectivity ratio [2]: ≥ 981 | CC50 [3]: ≥ 147 µM | EC50 [1]: 0.149 µM

Cc1ccc(NC(=O)CSc2snnc2-c2ccc(Cl)cc2Cl)c(Br)c1
selectivity ratio [2]: > 1260 | CC50 [3]: > 256 µM | EC50 [1]: 0.204 µM

COC(=O)c1ccc(NC(=O)CSc2snnc2-c2ccccc2)c(Br)c1
selectivity ratio [2]: > 53 | CC50 [3]: > 269 µM | EC50 [1]: 5.1 µM

CCOC(=O)c1ccc(NC(=O)CSc2snnc2-c2ccc(OC)cc2)c(Br)c1
selectivity ratio [2]: > 82 | CC50 [3]: > 246 µM | EC50 [1]: 3.01 µM

O=C(CSc1snnc1-c1ccc(F)cc1F)Nc1ccccc1F
selectivity ratio [2]: 27 | CC50 [3]: 148 µM | EC50 [1]: 5.45 µM

O=C(CSc1snnc1-c1ccc(F)cc1F)Nc1ccccc1Br
CC50 [3]: 144 µM | EC50 [1]: 2.26 µM

O=C(CSc1snnc1-c1ccc(Cl)cc1Cl)Nc1ccccc1Cl
selectivity ratio [2]: 943 | CC50 [3]: 111 µM | EC50 [1]: 0.118 µM

O=C(CSc1snnc1-c1ccc(F)cc1F)Nc1ccccc1Cl
selectivity ratio [2]: 146 | CC50 [3]: 178 µM | EC50 [1]: 1.23 µM

COc1ccc(-c2nnsc2SCC(=O)Nc2ccccc2[N+](=O)[O-])cc1
selectivity ratio [2]: ≥ 283 | CC50 [3]: ≥ 281 µM | EC50 [1]: 0.99 µM

COc1ccc(-c2nnsc2SCC(=O)Nc2ccccc2F)cc1
Activity [2]: Not Active | CC50 [3]: > 333 µM | EC50 [1]: 333 µM

O=C(CSc1snnc1-c1ccc(Cl)cc1Cl)Nc1ccccc1[N+](=O)[O-]
selectivity ratio [2]: > 4880 | CC50 [3]: > 283 µM | EC50 [1]: 0.059 µM

COc1ccc(-c2nnsc2SCC(=O)Nc2ccc(C)cc2Br)cc1
selectivity ratio [2]: 49 | CC50 [3]: 249 µM | EC50 [1]: 5.06 µM

O=C(CSc1snnc1-c1ccccc1)Nc1ccccc1[N+](=O)[O-]
Activity [2]: Not Active | CC50 [3]: ≥ 247 µM | EC50 [1]: ≥ 54.2 µM

Cc1ccc(NC(=O)CSc2snnc2-c2ccccc2)c(Br)c1
selectivity ratio [2]: > 22 | CC50 [3]: > 297 µM | EC50 [1]: 13.7 µM

CCOC(=O)c1ccc(NC(=O)CSc2snnc2-c2ccc(Cl)cc2Cl)c(Br)c1
selectivity ratio [2]: > 2300 | CC50 [3]: > 228 µM | EC50 [1]: 0.099 µM

COc1ccc(-c2nnsc2SCC(=O)Nc2ccccc2Br)cc1
selectivity ratio [2]: > 90 | CC50 [3]: > 286 µM | EC50 [1]: 3.19 µM

CCOC(=O)c1ccc(NC(=O)CSc2snnc2-c2ccccc2)c(Br)c1
selectivity ratio [2]: ≥ 45 | CC50 [3]: ≥ 232 µM | EC50 [1]: 5.21 µM

COC(=O)c1ccc(NC(=O)CSc2snnc2-c2ccc(OC)cc2)c(Br)c1
selectivity ratio [2]: 97 | CC50 [3]: 195 µM | EC50 [1]: 2 µM

Cc1ccc(NC(=O)CSc2snnc2-c2ccc(F)cc2F)c(Br)c1
selectivity ratio [2]: > 189 | CC50 [3]: > 274 µM | EC50 [1]: 1.45 µM

COc1ccc(-c2nnsc2SCC(=O)Nc2ccccc2Cl)cc1
selectivity ratio [2]: > 121 | CC50 [3]: > 319 µM | EC50 [1]: 2.63 µM

O=C(CSc1snnc1-c1ccc(F)cc1F)Nc1ccccc1[N+](=O)[O-]
selectivity ratio [2]: 40 | CC50 [3]: 165 µM | EC50 [1]: 4.14 µM

CC(C)Nc1cccnc1N1CCN(C(=O)c2cc3cc(NS(C)(=O)=O)ccc3[nH]2)CC1 [DELAVIRDINE]
selectivity ratio [2]: > 12 | CC50 [3]: > 3.83 µM | EC50 [1]: 0.32 µM

O=C1Nc2ccc(Cl)cc2[C@@](C#CC2CC2)(C(F)(F)F)O1 [EFAVIRENZ]
selectivity ratio [2]: > 1430 | CC50 [3]: > 6.34 µM | EC50 [1]: 0.0044 µM

Cc1ccnc2c1NC(=O)c1cccnc1N2C1CC1 [NEVIRAPINE]
CC50 [3]: > 15 µM

Cc1cn([C@H]2C[C@H](N=[N+]=[N-])[C@@H](CO)O2)c(=O)[nH]c1=O [ZIDOVUDINE]
selectivity ratio [2]: > 6190 | CC50 [3]: > 93.5 µM | EC50 [1]: 0.0151 µM

Reference: ChEMBL document CHEMBL1142475, “1,2,3-Thiadiazole thioacetanilides as a novel class of potent HIV-1 non-nucleoside reverse transcriptase inhibitors” (Bioorg Med Chem Lett, 2008)
